Like-named read-outs stand apart in the source and are kept apart here.
Experiments:
[1] = test system: RBL-2H3 cells; test: Inhibition of serotonin liberation from IgE-sensitized, antigen-stimulated RBL-2H3 cells ([3H]-serotonin); format: cell-based; settings: Rattus norvegicus; IgE-sensitized RBL-2H3 cells stimulated with specific antigen; [3H]-labeled serotonin
Text: Under the action of an antigen specific to the IgE antibody, RBL-2H3 cells, i.e., a cell line originating in rat cells, not only liberate histamine and serotonin but also produce and liberate cytokines such as TNF" serving as an inflammatory mediator and prostaglandins. In this experimental system, the effects of the compounds of the present invention of inhibiting the liberation of various mediators were examined by using serotonin as an indication.
The cells were labeled with [^3H]-labeled serotonin and, at the same time, sensitized with the IgE antibody. Next, these cells were incubated in the presence of the acridone compounds according to the present invention and then stimulated with the specific antigen. Then the serotonin liberation inhibitory activity of each acridone compound was calculated from the amount of the [^3H]-labeled serotonin thus liberated into the medium due to the above-mentioned stimulation and the amount of the [^3H]-labeled serotonin liberated into the medium by the same experimental procedure as the one described above but adding no acridone compound of the present invention.

[2] = test system: human basophils; test: Inhibition of mediator (histamine, peptide leukotriene) liberation from human basophils stimulated with tick antigen; format: cell-based; settings: leukocyte fraction containing basophils, enzyme immunoassay
Procedure: To 20 ml of heparinized blood was added 6 ml of 6% dextran (for separating leukocytes, high molecular weight). The obtained mixture was thoroughly stirred and then allowed to stand at 37°C for 30 minutes to thereby sediment erythrocytes. The upper layer was taken out and phosphate-buffered saline was added thereto. The obtained mixture was centrifuged at 185 G for eight minutes to thereby give a crude leukocyte fraction. These cells (leukocyte fraction) were subjected to hypotonic hemolysis and then suspended in D-PBS(+) containing 0.1% of BSA. The cell suspension thus prepared was used in the subsequent experiment as the leukocyte fraction containing basophils.
To 0.4 ml of this cell suspension preliminarily heated at 37°C for 5 minutes was added 0.05 ml of a solution containing each acridone compound of the present invention. The obtained mixture was then allowed to stand at 37°C for 15 minutes so that the cells were pre-treated. Next, 0.05 ml of a tick antigen solution was added thereto to thereby induce an antigen-antibody reaction. Ten minutes thereafter, the antigen-antibody reaction was ceased by ice-cooling. After ceasing the reaction, the mixture was centrifuged at 185 G for ten minutes. The supernatant was taken out and the contents of histamine and a peptide leukotriene therein were determined by using each an enzyme immunoassay kit. Based on the data thus obtained, the activities of the compound of inhibiting the liberation of histamine and peptide leukotriene were determined.

[3] = target: T1, tyrosine kinase of 72 kDa (Rattus norvegicus, UniProt Q64725); test: Inhibition of phosphorylation (activation) of the 72 kDa tyrosine kinase induced by phosphorylated TAM peptide of IgE receptor γ-chain, western blotting; format: biochemical; settings: Compd. concentration 10 μM; RBL-2H3 lysate or cytosol, TAM peptide 10 µM, ATP 50 µM; tyrosine kinase phosphorylation inhibitory ratio; read-out: Inhibitory potency
T1 construct: the tyrosine kinase of 72 kDa contained in the lysate or cytosol thus prepared; endogenous in cells; host or cells: RBL-2H3 cells (NP-40 lysate or cytosol fraction)
T1 sequence (Q64725 whole entry): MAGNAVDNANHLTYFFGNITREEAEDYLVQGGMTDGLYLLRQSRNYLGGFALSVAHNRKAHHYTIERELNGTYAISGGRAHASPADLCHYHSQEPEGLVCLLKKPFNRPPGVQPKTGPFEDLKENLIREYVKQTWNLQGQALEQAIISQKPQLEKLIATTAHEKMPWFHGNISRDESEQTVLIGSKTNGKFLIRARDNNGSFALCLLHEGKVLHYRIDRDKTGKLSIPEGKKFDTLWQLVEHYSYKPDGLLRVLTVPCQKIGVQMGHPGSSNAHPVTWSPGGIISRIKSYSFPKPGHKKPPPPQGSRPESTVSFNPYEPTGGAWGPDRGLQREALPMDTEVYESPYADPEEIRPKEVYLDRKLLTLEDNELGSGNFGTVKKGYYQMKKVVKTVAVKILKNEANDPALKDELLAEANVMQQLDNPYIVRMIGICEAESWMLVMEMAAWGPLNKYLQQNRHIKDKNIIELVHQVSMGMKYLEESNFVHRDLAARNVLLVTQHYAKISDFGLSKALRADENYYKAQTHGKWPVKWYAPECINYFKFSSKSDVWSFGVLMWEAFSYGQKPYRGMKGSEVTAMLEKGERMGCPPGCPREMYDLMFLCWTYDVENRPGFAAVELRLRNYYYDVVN
Text: In this experiment, use was made of RBL-2H3 cells, i.e., a cell line which is generally employed in the studies on the informational transmission system in IgE receptors of mast cells or basophils and a peptide in the tyrosine activation motif (TAM) region containing phosphorylated tyrosine in a human IgE receptor γ chain synthesized by Peputido Kenkyusho K.K..
In this experiment, use was made of a lysate which had been obtained by solubilizing 1 × 10^7 to 5 × 10^7 cells with the use of a solution containing various proteases and NP-40 employed as a solubilizer at a concentration of 1% and a supernatant (as the cytosol fraction of the cells) which had been obtained by disrupting the cells with Down's homogenizer and centrifuging the obtained mixture at 50,000 rpm for 1 hour. The concentrations of the lysate and cytosol of the cells were each adjusted to 1 mg protein/ml with the use of an isotonic buffer. […]
The extent of the activation of this tyrosine kinase was determined by confirming the extent of the phosphorylation of the tyrosine moiety in the tyrosine kinase per se by western blotting with the use of an anti-tyrosine phosphorylation antibody and then numerically expressing the obtained data with an image analyzer. Based on the extent of the phosphorylation thus obtained, the tyrosine kinase phosphorylation inhibitory ratio of the compound 101 was determined.

[4] = histamine, read-out: IC50 (µM) in mediator liberation from human basophils histamine
[5] = peptide leukotriene, read-out: IC50 (µM) in mediator liberation from human basophils leukotriene

Row | Compound | IC50 [1] | IC50 [2, 4] | IC50 [2, 5] | inhibition at 10 µM [3]
1 | Cc1ccc2c(=O)c3c(CC(=O)O)cccc3n(CCCNCc3ccccc3)c2c1C [Compound 1] | 3 µM | 30 µM | 30 to 100 µM | 
2 | Cc1ccc2c(=O)c3c(CC(=O)O)cccc3n(CCCNCc3ccc(Cl)cc3Cl)c2c1C [Compound 13] | 0.2 µM | 10 to 30 µM | 3 to 10 µM | 
3 | COc1c(CNCCCn2c3cccc(CC(=O)O)c3c(=O)c3ccc(C)c(C)c32)ccc(Cl)c1Cl [Compound 28] | 1 µM | 10 µM | 3 µM | 
4 | Cc1ccc2c(=O)c3ccccc3n(CCCNCc3ccccc3O)c2c1C [Compound 39] | 1 µM | 10 µM | 3 µM | 
5 | Cc1ccc2c(=O)c3c(CC(=O)O)cccc3n(CCCN(C)Cc3ccccc3)c2c1C [Compound 101] | 3 µM |  | 10 to 30 µM | 70%
6 | CNC(=O)Cc1cccc2c1c(=O)c1ccc(C)c(C)c1n2CCCN(C)Cc1ccccc1 [Compound 135] | 2 µM |  | 10 to 30 µM | 
7 | Cc1ccc2c(=O)c3c(C(C)C(=O)O)cccc3n(CCCNCc3ccccc3)c2c1C (stereo not drawn) [Compound 141] | 1 µM | 30 to 100 µM | 3 to 10 µM | 
8 | Cc1ccc2c(=O)c3c(C(C)C(=O)O)cccc3n(CCCNCc3ccc(Cl)c(Cl)c3)c2c1C (stereo not drawn) [Compound 142] | 1 µM |  |  | 
9 | Cc1ccc2c(=O)c3c(C(C)C(=O)O)cccc3n(CCCNCc3ccc(Cl)cc3Cl)c2c1C (stereo not drawn) [Compound 143] | 1 µM | 30 µM | 10 µM | 

Source: patent EP0857721A1, “ACRIDONE COMPOUNDS” (Eisai Co., Ltd., priority 1995, dated 1997)
